Laboratory results as given in patent publication US9458123B2, “Methods, pharmaceutical compositions, therapeutic systems, and compounds for treating B cell malignancies” (University of Rochester, priority 2012, dated 2016).

What was measured:
[1] = tested on: IκBα phosphorylation by LPS in MEF cells; assay: IκBα phosphorylation after LPS, western blot; format: cell-based, Mouse; conditions: LPS 1.5 μg/ml
Protocol: SUDHL-6, RAW264.7, and MEF cells were treated with NSC697923 or DMSO (control) for 1 hour before being stimulated with the PMA (100 ng/ml), RANKL (15 ng/ml), and LPS (1.5 μg/ml) for the indicated times. The levels of IκBα phosphorylation in the indicated samples were assessed by western blotting.
HEK293T cells were grown in DMEM supplemented with 10% fetal bovine serum (FBS). Diffuse large B cell lymphoma (DLBCL) cells SUDHL-6, OCI-Ly3, OCI-Ly7, OCLLy10, and HBL-1 were cultured as previously described (Davis et al., “Constitutive Nuclear Factor KappaB Activity is Required for Survival of Activated B Cell-Like Diffuse Large B Cell Lymphoma Cells,” J. Exp. Med. 194:1861-1874 (2001) and Kim et al., “Protein Kinase C-Associated Kinase is Required for NF-kappaB Signaling and Survival in Diffuse Large B-Cell Lymphoma Cells,” Blood 111:1644-1653 (2008), each of which is hereby incorporated by reference in its entirety). RAW264.7 cells were cultured in α-MEM medium supplemented with 10% FBS. Mouse embryo fibroblasts (“MEFs”) were prepared from day 14 embryos as previously described (Kamijo et al., “Tumor Suppression at the Mouse INK4a Locus Mediated by the Alternative Reading Frame Product p19ARF,” Cell 91:649-659 (1997), which is hereby incorporated by reference in its entirety). MEFs with less than four passages were used for the experiments described here. […]

[2] = tested on: K63-linked ubiquitination and repair protein recruitment in U2OS cells; assay: DNA double-strand break focus formation after γ-irradiation; format: cell-based; conditions: 1 μM, γ-irradiated 10 Gy
Protocol: Osteosarcoma U2OS cells were pretreated with 1 μM NSC697923 for 1 hour before γ-irradiated (10 Gy). 30 minutes after irradiation, the cells were fixed and stained with the monoclonal antibody FK2, which recognizes protein-conjugated, but not free, ubiquitin and marks the foci formed by K63-linked ubiquitinated proteins at sites of DSBs. […] U2OS cells were treated as described in FIG. 13A except that the focus formation of the indicated proteins is detected with their respective antibodies.

Ubc13-Uev1A = target: T1, Ubc13-Uev1A (Homo sapiens, UniProt P61088); assay: In vitro ubiquitination assay, Ubc13-Uev1A; format: biochemical
T1 construct: purchased Boston Biochem Inc E2-600 (Ubc13); E2-662 (Uev1A)
Protocol: The in vitro reaction, which contains purified E1, ubiquitin, Ubc13, and Uev1A, was carried out with or without the indicated concentrations of NSC697923. The reaction products were analyzed by a ubiquitin-specific antibody on western blots. FIG. 4B is the same as FIG. 4A, except that purified GST-TRAF6 was included as the E3 in the complete reaction as indicated. […] The assay was carried out as in FIG. 4B, except that UbcHSc instead of Ubc13-Uev1A was used as the E2 in the ubiquitination reaction.
The purified recombinant proteins used in the in vitro ubiquitination reactions were all purchased from Boston Biochem Inc, except GST-TRAF6, which was expressed and purified as described above. The reactions were carried out at 37° C. for 40 minutes in a buffer containing 50 mM Tris-HCl, pH 7.5, 5 mM MgCl2, 200 μM ATP, 120 μM ubiquitin (U-100H), and 0.1 μM E1 (E-304). For the Ubc13-mediated ubiquitin chain synthesis, the reaction mixture includes 0.2 μM Ubc13 (E2-600) and […] Uev1A (E2-662) with or without GST-TRAF6 as indicated. For UbcHSc-catalyzed ubiquitination, UbcHSc (E2-627), instead of Ubc13 and Uev1A, was used in the reaction. […] The reactions were terminated by the addition of an equal volume of SDSPAGE sample buffer, and the products were analyzed by western blotting with a ubiquitin specific antibody.

T1 sequence (P61088 whole entry): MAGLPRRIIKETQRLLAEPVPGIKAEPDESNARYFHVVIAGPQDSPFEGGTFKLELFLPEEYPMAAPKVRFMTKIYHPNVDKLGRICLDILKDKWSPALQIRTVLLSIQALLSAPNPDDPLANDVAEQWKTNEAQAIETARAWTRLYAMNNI
T1 sequence (Q13404 whole entry partner): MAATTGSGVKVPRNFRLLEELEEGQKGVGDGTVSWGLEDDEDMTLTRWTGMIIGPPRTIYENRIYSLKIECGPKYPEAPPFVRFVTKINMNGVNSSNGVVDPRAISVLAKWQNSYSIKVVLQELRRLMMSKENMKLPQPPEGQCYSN

SMILES: Cc1ccc(S(=O)(=O)c2ccc([N+](=O)[O-])o2)cc1 [NSC697923, 2-nitro-5-tosylfuran]
- IκBα phosphorylation by LPS [1]: inhibited
- FK2 focus formation [2]: inhibition of FK2 focus formation
- recruitment of 53BP1 to sites of DNA double-strand breaks [2]: inhibits recruitment
- recruitment of BRCA1 to sites of DNA double-strand breaks [2]: inhibits recruitment
- polyubiquitin chain formation catalyzed by Ubc13-Uev1A (Ubc13-Uev1A; E1, ubiquitin, Ubc13, Uev1A, without E3): inhibited polyubiquitin chain formation catalyzed by Ubc13-Uev1A complex in a dose-dependent manner
- ubiquitin chain formation catalyzed by Ubc13-Uev1A together with TRAF6 (Ubc13-Uev1A; GST-TRAF6 as E3): similarly inhibited by NSC697923 in a dose-dependent manner
